Like-named read-outs stand apart in the source and are kept apart here.

These results are taken from patent publication US4939175A, “Use of N,N-dimethyl-1-[1-(4-chlorophenyl)cyclobutyl]-3-methylbutylamine” (priority 1988, dated 1990).

The subject of data set [1] is depletion of norepinephrine induced by 6-hydroxydopamine in rat heart. The experiment in a line: Depletion of norepinephrine induced by 6-hydroxydopamine in rat heart. The settings on record: 6-hydroxydopamine 20 mg/kg i.p., control 20 ± 4, non-treatment 425 ± 49, **p < 0.01. The class given is in vivo, Std: Wistar male rats. How it is done: Effect of the test samples on the depletion of norepinephrine induced by 6-hydroxydopamine in rat heart.
The test sample was administered orally to Std: Wistar male rats and after 30 minutes, 6-hydroxydopamine (20 mg/kg) was injected intraperitoneally.
At 16 hours after injection of 6-hydroxydopamine, the rats were killed. The whole heart was rapidly removed and homogenized in 0.05M perchloric acid with isoproterenol (10 mg/ml) as an internal standard. The homogenate was centrifuged and then the amount of norepinephrine in the supernatant was determined by means of high performance liquid chromatography with electrochemical detection.
Desipramine was used as the reference drug and distilled water was used as control sample.

Data set [2] has as its system circling behavior in rats with unilateral substantia nigra lesions. The experiment in a line: Circling behavior in rats with unilateral substantia nigra lesions. The class given is in vivo, Std: Wistar male rats. The settings on record: 2 hours after, control 0.1 ± 0.4, **p < 0.01. As for the experimental part:
Effect of the test samples on circling behavior in rats with unilateral substantia nigra lesions
Std: Wistar male rats (8 heads/group) were used. The rat with unilateral substantia nigra lesions was made by injecting 8 μg/4 μl of 6-hydroxydopamine to the right side of substantia nigra.
The test sample was administered orally to the rat. At 2 hours later, the number of circling behavior per 10 minutes was counted.
Amantadine was used as the reference drug and distilled water was used as control sample.

Data set [3] in a line: Acute toxicity, oral, mice. Further details: species or system SlC:ddy male mice. The settings on record: mouse, in vivo, read-out: Number of dead mice per 10 mice. How it is done:
SlC:ddy male mice (10 heads/group) were used.
After the oral administration of the test smaple, desipramine was used as the test drug, to the mice, the number of the dead mice was counted at 0.5, 1, 2, 4, 18 and 24 hours respectively after the oral administration.

On to `CC(C)CC(N(C)C)C1(c2ccc(Cl)cc2)CCC1.Cl` (centres unmarked) [Test compound, N,N-dimethyl-1-[1-(4-chlorophenyl)cyclobutyl]3-methylbutylamine hydrochloride], for which, in data set [1] (0.625 mg/kg oral), the “Amount of Norepinephrine” value is reported as 169 ± 34 ng/g. Besides, in data set [1] (1.25 mg/kg oral), the “Amount of Norepinephrine” value is listed as 247 ± 49 ng/g. The “Amount of Norepinephrine” value in data set [1] (2.5 mg/kg oral) turned out to be 306 ± 27 ng/g. For the same compound, the “Number of circling behavior per 10 min.” value in data set [2] (3 mg/kg oral) was 3.0 ± 2.9 per 10 min. The “Number of circling behavior per 10 min.” value in data set [2] (10 mg/kg oral) worked out at 5.1 ± 4.4 per 10 min. Also, in data set [3] (200 mg/kg oral), the mortality at 0.5 h is 0%, the mortality at 1 h was 10%, the mortality at 2 h was determined as 10% and the mortality at 4 h turned out to be 10%. In data set [3] (200 mg/kg oral), the mortality at 18 h was determined as 20% and the mortality at 24 h came out at 20%. For the same compound, in data set [3] (800 mg/kg oral), the mortality at 0.5 h was found to be 40%, the mortality at 1 h turned out to be 50%, the mortality at 2 h amounted to 50% and the mortality at 4 h amounted to 60%. Besides, in data set [3] (800 mg/kg oral), the mortality at 18 h was determined as 90% and the mortality at 24 h amounted to 90%.
